Measured values from patent publication US20230027104A1, “NUTRITIONAL POWDER COMPRISING OLIGOPEPTIDES AND APPLICATIONS THEREOF” (Suzhou Jianyuan Biotechnology Co., Ltd., priority 2021, published 2023).
Marks after values point to notes of the source that are not given here.

Assays:
Format in all cases: in vivo, human
[1] = system: healthy middle-aged men and women; test: Hangover cure and rehabilitation effect after excessive drinking of liquor (self-rated discomfort level); conditions: 1 cysteine tablet (1200 mg L-cysteine) before dinner
Method: (§1) Thirty-six healthy middle-aged men and women were chosen and divided into four groups, namely, the control group, the cysteine group, the 5 g oligopeptide nutrition group (prepared in Example 3) and the 10 g oligopeptide nutrition group (prepared in Example 3). Ten to twenty minutes before dinner (at time 18:00), 150 mL of plain boiled water at a temperature of 35° C. was prepared for each person in advance. In the control group, the subjects only drank plain boiled water; in the cysteine group, the subjects took 1 cysteine tablet (each comprising 1200 mg L-cysteine, produced by U.S. Now Food) when drinking water; in the 5 g oligopeptide nutritional group, the subjects put 5 g of the oligopeptide nutritional powder into a cup, poured 150 mL of plain boiled water, stirred to dissolve and drink; in the 10 g oligopeptide nutritional group, the subjects put 10 g of the oligopeptide nutritional powder into a cup, poured 150 mL of plain boiled water, stirred to dissolve and drink.
Dinners started at 18:00 and ended at 20:00. Each of 36 subjects drank 200 mL of liquor (Kweichow Moutai Liquor 2018, 53% vol. 106 PROOF) within two hours. […] All subjects' forms were collected, and the subjects' conditions were recorded and analyzed by classification.

[2] = system: healthy middle-aged men and women; test: Summary of hangover cure and rehabilitation effects on excessive drinking of liquor and red wine; conditions: liquor and red wine summarised, 1200 mg cysteine
Method: as §1
Dinners started at 18:00 and ended at 20:00. Each of 36 subjects drank 200 mL of liquor (Kweichow Moutai Liquor 2018, 53% vol. 106 PROOF) within two hours. The subjects' dinners were mainly Chinese stir-fried dishes, including fish, meat and vegetables, with rice as the staple food, and the dinners lasted two hours. In the next morning at 8:00 (12 hours after drinking) and in the third morning at 8:00 (36 hours after drinking), the subjects filled in the forms, indicating personal feelings. The personal feelings included 5 levels, namely, level 0 indicated no discomfort, level 1 indicated slight tiredness, level 2 indicated feeling of dizziness, level 3 indicated headache, level 4 indicated nausea or vomiting, requiring stay in bed. All subjects' forms were collected, and the subjects' conditions were recorded and analyzed by classification.
Thirty-six healthy middle-aged men and women were chosen and divided into four groups, namely, the control group, the cysteine group, the 5 g oligopeptide nutrition group (prepared in Example 3) and the 10 g oligopeptide nutrition group (prepared in Example 3), and they experienced the hangover cure and rehabilitation effect of the oligopeptide nutritional powder for excessive drinking of red wine. Ten to twenty minutes before dinner, 150 mL of plain boiled water at a temperature of 35° C. was prepared for each person. […]
Dinners started at 18:00 and ended at 20:00. […] All subjects' forms were collected, and the subjects' conditions were recorded and analyzed by classification.

[3] = system: healthy middle-aged men and women; test: Hangover cure and rehabilitation effect after excessive drinking of red wine (self-rated discomfort level); conditions: 1 cysteine tablet (1200 mg L-cysteine) before dinner
Method: as §1, with “3), and they experienced the hangover cure and rehabilitation effect of the oligopeptide nutritional powder for excessive drinking of red wine.” for “3).”, “dinner,” for “dinner (at time 18:00),”, “person.” for “person in advance.”
Dinners started at 18:00 and ended at 20:00. Each of 36 subjects drank 400 mL of red wine (France Saint Arnaud Cabernet Sauvignon 2015, 13.5% vol. Cabernet Sauvignon). […] All subjects' forms were collected, and the subjects' conditions were recorded and analyzed by classification.

[4] = Effect on blood alcohol content after drinking liquor or red wine (breath alcohol tester)
Method: Thirty healthy middle-aged men and women were chosen and divided into three groups, namely, the control group, the cysteine group and the 10 g oligopeptide nutrition group. After drinking liquor and red wine, the effects of the oligopeptide nutritional powder on the blood alcohol contents were compared. Ten to twenty minutes before dinner, 150 mL of plain boiled water at a temperature of 35° C. was prepared for each person. In the control group, the subjects only drank plain boiled water; in the cysteine group, the subjects took 1 cysteine tablet (each comprising 1200 mg L-cysteine, produced by U.S. Now Food) when drinking water; in the 10 g oligopeptide nutritional group, the subjects put 10 g of the oligopeptide nutritional powder into a cup, poured 150 mL of plain boiled water, stirred to dissolve and drink.
Dinners started at 18:00 and ended at 20:00. Each of 30 subjects drank 200 mL of liquor (Kweichow Moutai Liquor 2018, 53% vol. 106 PROOF) or 400 mL of red wine (France Saint Arnaud Cabernet Sauvignon 2015, 13.5% vol. Cabernet Sauvignon) within two hours. The subjects' dinners were mainly Chinese stir-fried dishes, including fish, meat and vegetables, with rice as the staple food, and the dinners lasted two hours. Every 30 minutes after the start of drinking, the breath alcohol tester (Mr. Black-03) was used to test the blood alcohol content of each subject for four hours, then test once every two hours; on the 16th hour after drinking, the test was over. The data of the subjects were recorded separately, and the statistical analysis of data was performed by groups. The blood alcohol metabolism curve of each group was completed by Gaussian Fitting method. For oligopeptide nutritional powder, after 4 hours of excessive drinking of liquor and red wine, namely, 2 hours after the end of meals, the blood alcohol content was measured, as shown in Table 3.

**Q.** With `N[C@@H](CS)C(=O)O` [cysteine tablets, L-cysteine] as the compound, how does the “subjects with obvious discomfort (>2 degree of discomfort)” value ([1]; 12 hours after drinking 200 mL liquor) read?
**A.** Its value is 44.4%.

**Q.** And the “subjects with obvious discomfort” value ([1]; 36 hours after drinking 200 mL liquor)?
**A.** Its value is 22.2%.

**Q.** What about the “Proportion of > degree 2 discomfort 12 hours after drinking wine” value [2] of the same compound?
**A.** The value was 44.4%.

**Q.** What about the “Proportion of > degree 2 discomfort 12 hours after drinking wine” value ([2]; listed as Cysteine) of the same compound?
**A.** Its value is 44.4%^b.

**Q.** What about the “Proportion of > degree 2 discomfort 36 hours after drinking wine” value ([2]; listed as Cysteine) of the same compound?
**A.** Its value is 22.2%^a.

**Q.** What about the “Proportion of > degree 2 discomfort 36 hours after drinking wine” value ([2]; listed as cysteine) of the same compound?
**A.** The value was 22.2%.

**Q.** What about the “subjects with obvious discomfort (>2 degree of discomfort)” value ([3]; 12 hours after drinking 400 mL red wine) of the same compound?
**A.** Its value is 44.4%.

**Q.** And the “subjects with obvious discomfort” value ([3]; 36 hours after drinking 400 mL red wine)?
**A.** Its value is 22.2%.

**Q.** And the “Blood alcohol content 4 hours after drinking liquor” value ([4]; 200 mL liquor, 1200 mg cysteine before dinner, breath alcohol tester)?
**A.** The value was 42.3 ± 3.1^b mg/100 mL.

**Q.** And the “Blood alcohol content 4 hours after drinking red wine” value ([4]; 400 mL red wine, 1200 mg cysteine before dinner, breath alcohol tester)?
**A.** Its value is 38.7 ± 6.8^ab mg/100 mL.

**Q.** And the “blood alcohol content versus alcohol content threshold for drunk driving” value ([4]; within 4 hours of drinking liquor or red wine, cysteine group (1200 mg))?
**A.** The value was over 20 mg/100 mL.
